Measured values: publication PMC11247486, “Improving the In Vivo Stability of [^52Mn]Mn(II) Complexes with 18-Membered Macrocyclic Chelators for PET Imaging” (Journal of Medicinal Chemistry, 2024)
Read-outs that look alike come from different tables or passages of the source.

Legend:
[1] = pH-potentiometric titrations, ligand protonation constants; type: physicochemical; details: 0.15 M NaCl, 25°C
Procedure: Chelator protonation constants (log Ki^H) defined by eq 1 were determined using pH-potentiometric titrations, which afforded four protonation constants for each chelator attributed to the protonation of the amine N atoms (Table 2, and standard deviations are shown in parentheses). [drawing 1] 1 where i = 1, 2...4. The first two protonation constants adopt nearly identical values for both chelators, while the third and fourth protonation constants are much lower for CHXPYAN than for PYAN, which is consistent with the results obtained by Jackels et al.[25] The high rigidity of CHXPYAN likely forces the protonated amines to be placed at a shorter distance than in PYAN, reducing the values of log K3^H and log K4^H for the cyclohexyl derivative due to electrostatic effects. […] The structurally related 18-membered macrocycle 18-ane-N6 is characterized by a higher basicity compared with PYAN and CHXPYAN, as expected due to the increased number of amine N atoms and its higher flexibility.[43]
(§1) The protonation constants of PYAN and CHXPYAN and the stability constants of Mn(II) complexes were determined by pH-potentiometric titrations. The metal-to-ligand concentration ratio was 1:1 (the concentration of the ligand was generally 0.002 M). For the pH measurements and titrations, a Metrohm 888 Titrando titration workstation and Metrohm-6.0234.110 combined electrode was used. Equilibrium measurements were carried out at a constant ionic strength (0.15 M NaCl) in 6 mL samples at 25 °C. The solutions were stirred, and N2 was bubbled through them. The titrations were made in the pH range of 1.7–12.0. KH-phthalate (pH = 4.005) and borax (pH = 9.177) buffers were used to calibrate the pH meter. For the calculation of [H^+] from the measured pH values, the method proposed by Irving et al. was used as follows.[59] A 0.01 M HCl solution was titrated with a standardized NaOH solution at 0.15 M NaCl ionic strength. The differences (A) between the measured (pHread) and calculated pH (−log[H^+]) values were used to obtain the equilibrium H^+ concentration from the pH values measured in the titration experiments (A = 0.04). For the equilibrium calculations, the stoichiometric water ionic product (pKw) was also needed to calculate the [OH^–] values under basic conditions. The VNaOH – pHread data pairs of the HCl–NaOH titration obtained in the pH range of 10.5–12.0 were used to calculate the pKw value (pKw = 13.77). The protonation and stability constants were calculated with the PSEQUAD program.[60]

[2] = Transmetalation (dissociation) kinetics of the Mn(II) complexes with Cu2+; type: physicochemical; details: 0.15 M NaCl, 25 °C; for log*KH: protonation constant of the *[Mn(HL)] intermediate
Procedure: There is a wide consensus among the coordination chemistry community that kinetic inertness is more important for the safe use of metal complexes for imaging applications than thermodynamic stability.[8],[49],[50] Thus, we conducted a detailed investigation of the transmetalation kinetics of the Mn-PYAN and Mn-CHXPYAN complexes, by following their exchange reactions with Cu^2+ in the pH range of 2.5–4.5 (eq 3). [drawing 3] 3
All reactions were carried out in the presence of a large excess of Cu^2+ in order to guarantee the pseudo-first-order kinetic conditions. The transmetalation of Mn-PYAN in the pH range ∼2.0–4.5 is very fast, and thus the rates of the reactions were measured using the stopped-flow technique. Conversely, the exchange reactions of the Mn-CHXPYAN complex are slow and could be studied by using conventional methods. The transmetalation reactions of Mn-PYAN and Mn-CHXPYAN were monitored by following the formation of the corresponding Cu(II) complexes at 295 nm.
The kd values increase upon increase in [H^+] and are independent of the concentration of Cu^2+ as it was found for Mn-PCTA, Mn-PC3AM, and Mn-bispidine complexes.[49],[51] […] The increase in the kd values with increasing H^+ concentration can be interpreted in terms of the extremely slow spontaneous (k0, eq 4) and the proton-assisted (k*[Mn(HL), eq 6) dissociation of Mn(II) complexes. The saturation behavior of the plots of kd versus [H^+] (Figure 5) is characteristic for the equilibrium formation and the accumulation of the *[Mn(HL)] intermediate characterized by the *KH protonation constant (eq 5). The analysis of the rate constants obtained for Mn-CHXPYAN indicates a second-order dependence of kd on [H^+], which can be explained by the proton-assisted dissociation of the *[Mn(HL)] intermediate (k^H*[Mn(HL)], eq 7). [drawing 4] 4 [drawing 5] 5 [drawing 6] 6 [drawing 7] 7
In the presence of excess of the exchanging ion, the transmetalation can be treated as a pseudo-first-order process, and the rate of reactions can be expressed with eq 8, where kd is a pseudo-first-order rate constant and [MnL]t is the total concentration of the complex. [drawing 8] 8
Through consideration of all the possible pathways, the rate of the transmetalation of Mn-PYAN and Mn-CHXPYAN with Cu^2+ can be expressed by eq 9 [drawing 9] 9 Considering the total concentration of the Mn(II) complex ([MnL]t = [MnL] + [*Mn(HL)], as well as the equation defining the protonation constant for the formation of the *[Mn(HL)] intermediate (eq 5) and eq 8, the pseudo-first-order rate constant can be expressed as follows [drawing 10] 10 where k1 = k*[Mn(HL)] × *KH and k2 = k^H*[Mn(HL)] × *KH. The rate and protonation constants characterizing the transmetalation of Mn-PYAN and Mn-CHXPYAN with Cu^2+ have been calculated by fitting the kd values presented in Figure 5 to eq 10 and the values obtained are compared with the corresponding values of Mn-DOTA, Mn-DO3A, Mn-PCTA, Mn-PC3AM^H, and Mn-bispidine in Table 3.
Rates of the metal exchange reactions of Mn-PYAN and Mn-CHXPYAN with Cu^2+ were measured by spectrophotometry by following the formation of the related Cu(II) complexes at 295 nm with an Applied Photophysics DX-17MV stopped-flow instrument and PerkinElmer Lambda 365 UV–vis spectrophotometer using 1.0 cm cells, respectively. The concentration of Mn-PYAN and Mn-CHXPYAN was 1.0 × 10^–4 M, whereas the concentration of Cu^2+ was 10 and 20 times higher in order to guarantee pseudo-first-order conditions. The temperature was maintained at 25 °C and the ionic strength of the solutions was kept constant with 0.15 M NaCl. The exchange rates were studied in the pH range of ca. 2.0–4.5. To keep the pH values constant, monochloroacetic acid (pH range 2.0–3.3), 1,4-dimethylpiperazine (pH range 3.3–4.1), and N-methylpiperazine (pH range 4.1–4.5) buffers were used (0.01 M). […]

[3] = cited from earlier work
[4] = cited from earlier work; remark: listed apart in the source
[5] = pH-potentiometric titrations, stability constants of the Mn(II) complexes; type: physicochemical; details: 0.15 M NaCl, 25°C; for pMn: pMn = −log[Mn]free when [Mn^2+] = [L] = 10 μM at pH = 7.4; for log KMnL: stability constant of the Mn(II) complex
Procedure: The stability constants of the Mn(II) complexes with PYAN and CHXPYAN defined by eq 2 were also determined through pH-potentiometric titrations. [drawing 2] 2
as §1

[6] = 1H NMR relaxometry (relaxivity as a function of pH); type: physicochemical; details: pH 3, 61 MHz, 25 °C, after dissociation of the complexes
Description: The studies reported by Branco assumed the formation of a protonated [Mn(HL)]^3+ species for the Mn-PYAN complex characterized by protonation constant log KMnLH = 5.19 (KMnLH = [MnHL]/[MnL] × [H^+]).[42] However, our pH-potentiometric data could be fitted very well without considering the formation of protonated species or hydroxo-complexes. In order to confirm that the equilibrium model used to fit the pH-potentiometric data was correct, we measured the relaxivity (r1p) of aqueous solutions of the complexes as a function of pH (Figure 4). Relaxivity measures the ability of a paramagnetic solute to enhance the longitudinal relaxation rate of solvent water molecules, normalized for a 1 mM concentration of the paramagnetic ion.[45] The r1p values measured around neutral pH values (0.83 and 1.40 mM^–1 s^–1 at 61 MHz and 25 °C for Mn-PYAN and Mn-CHXPYAN, respectively) are typical of complexes that lack one or more water molecules in the inner coordination sphere, the observed relaxivity being the result of the outer-sphere contribution.[46] Relaxivity is fairly constant in the pH range of 6–9 but increases below pH ∼ 6 due to complex dissociation, reaching a relaxivity of 6.00 mM^–1 s^–1 at pH 3, 61 MHz, and 25 °C that is characteristic of the [Mn(H2O)6]^2+ complex.[47] The relaxivity profile matches the speciation diagrams calculated using the equilibrium constants obtained by pH potentiometry very well, which provides support for the equilibrium model used to fit the potentiometric data. It is worth noting that complex dissociation takes place at a lower pH for Mn-CHXPYAN than for Mn-PYAN, as expected, considering their pMn values.
The relaxivity values were calculated from the longitudinal relaxation time of H2O protons (T1) measured at 61 MHz on a Stelar relaxometer connected to a Bruker WP80 NMR electromagnet adapted to variable-field measurements (15–80 MHz proton Larmor frequency). […] The longitudinal relaxation time was measured with the “inversion recovery” method (180°–τ–90°) by using 12 different τ values with a typical 90° pulse width of 10.7 μs, 4 scans. […]

Row | SMILES | log K1^H [1] | log K2^H [1] | log K3^H [1] | log K4^H [1] | k1 ([2]; Mn(II) complex of the chelator) [M^–1 s^–1] | kd at pH = 7.4 ([2]; Mn(II) complex of the chelator) | log*KH [2] | pMn [5] | log KMnL [5] | other results
1 | c1cc2nc(c1)CNCCNCc1cccc(n1)CNCCNC2 [PYAN, 3,6,10,13-tetraaza-1,8(2,6)-dipyridinacyclotetradecaphane] | 9.02(1) | 8.27(1) | 6.06(1) | 5.18(2) | 827 ± 54 | 3.3 × 10^–5 s^–1 | 2.23 (4) | 7.18 | 11.93(3) | log K1^H ([3]; 0.1 M KNO3): 8.99; log K2^H ([3]; 0.1 M KNO3): 8.22; log K3^H ([3]; 0.1 M KNO3): 6.03; log K4^H ([3]; 0.1 M KNO3): 5.34; log K1^H ([3]; 0.2 M KCl): 9.13; log K2^H ([3]; 0.2 M KCl): 8.32; log K3^H ([3]; 0.2 M KCl): 6.12; log K4^H ([3]; 0.2 M KCl): 5.24; log KMnL ([4]; 0.1 M KNO3): 11.79; log KMnL ([4]; 0.2 M KCl): 12.5
2 | c1cc2nc(c1)CN[C@@H]1CCCC[C@H]1NCc1cccc(n1)CN[C@@H]1CCCC[C@H]1NC2 [CHXPYAN, (4^1R,4^2R,10^1R,10^2R)-3,5,9,11-tetraaza-1,7(2,6)-dipyridina-4,10(1,2)-dicyclohexanacyclododecaphane] | 9.16(2) | 8.27(2) | 4.55(2) | 2.54(3) | 0.23 ± 0.03 | 9.0 × 10^–9 s^–1 | 3.33 (5) | 7.41 | 12.51(3) | k2 ([2]; Mn(II) complex of the chelator): (6.4 ± 0.8) × 10^3 M^–2 s^–1; log K1^H ([3]; 0.2 M KNO3): 9.25; log K2^H ([3]; 0.2 M KNO3): 8.57; log K3^H ([3]; 0.2 M KNO3): 4.75; log K4^H ([3]; 0.2 M KNO3): 4.03; log KMnL ([4]; 0.2 M KNO3): ~13
3 | O.O.O.O.O.O.[Mn+2] [[Mn(H2O)6]^2+] |  |  |  |  |  |  |  |  |  | relaxivity [6]: 6.00 mM^–1 s^–1
